# Test results from ChEMBL document CHEMBL1129258, “Synthesis and structure-activity relationships of 2-pyridones: a novel series of potent DNA gyrase inhibitors as antibacterial agents” (J Med Chem, 1996).
# Tests used:
# [1] = target: T1, DNA gyrase (Escherichia coli) (UniProt P0AES6+P0AES4); assay: In vitro antibacterial activity against gram-negative organism Prov. stuartii CMX-640; type: functional; conditions: Providencia stuartii
# [2] = target: T1, DNA gyrase (Escherichia coli); assay: In vitro antibacterial activity against gram-negative organism […] ATCC 13048; type: functional; conditions: Enterobacter aerogenes
# [3] = target: T1, DNA gyrase (Escherichia coli); assay: In vitro antibacterial against gram-negative organism Escherichia coli JUHL; type: functional; conditions: Escherichia coli K-12
# [4] = target: T1, DNA gyrase (Escherichia coli); assay: In vitro antibacterial activity against gram-negative organism Klebsiella pneumoniae ATCC 8045; type: functional
# [5] = target: T2, DNA gyrase (Staphylococcus aureus) (UniProt P0A0K8+P20831); assay: In vitro antibacterial activity against gram-positive organism Staphylococcus aureus ATCC 6538p; type: functional
# T2 sequence (P0A0K8 2-644 limits assumed): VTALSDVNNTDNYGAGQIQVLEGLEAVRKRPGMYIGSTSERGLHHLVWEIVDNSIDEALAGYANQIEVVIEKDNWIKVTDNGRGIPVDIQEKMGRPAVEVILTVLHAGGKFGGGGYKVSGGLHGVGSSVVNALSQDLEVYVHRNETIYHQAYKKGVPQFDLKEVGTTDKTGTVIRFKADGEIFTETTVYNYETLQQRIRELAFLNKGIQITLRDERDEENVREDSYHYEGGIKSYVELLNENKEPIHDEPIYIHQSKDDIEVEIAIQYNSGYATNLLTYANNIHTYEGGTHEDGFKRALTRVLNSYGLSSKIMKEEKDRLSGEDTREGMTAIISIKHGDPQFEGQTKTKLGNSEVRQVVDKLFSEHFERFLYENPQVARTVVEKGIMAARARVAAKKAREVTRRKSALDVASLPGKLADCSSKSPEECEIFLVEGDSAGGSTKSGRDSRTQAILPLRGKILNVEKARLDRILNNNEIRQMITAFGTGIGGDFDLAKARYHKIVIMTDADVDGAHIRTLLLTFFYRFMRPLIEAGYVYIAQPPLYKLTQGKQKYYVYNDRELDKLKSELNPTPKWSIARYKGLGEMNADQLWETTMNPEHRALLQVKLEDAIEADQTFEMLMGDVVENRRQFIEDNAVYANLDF
# T2 sequence (P20831 whole entry partner): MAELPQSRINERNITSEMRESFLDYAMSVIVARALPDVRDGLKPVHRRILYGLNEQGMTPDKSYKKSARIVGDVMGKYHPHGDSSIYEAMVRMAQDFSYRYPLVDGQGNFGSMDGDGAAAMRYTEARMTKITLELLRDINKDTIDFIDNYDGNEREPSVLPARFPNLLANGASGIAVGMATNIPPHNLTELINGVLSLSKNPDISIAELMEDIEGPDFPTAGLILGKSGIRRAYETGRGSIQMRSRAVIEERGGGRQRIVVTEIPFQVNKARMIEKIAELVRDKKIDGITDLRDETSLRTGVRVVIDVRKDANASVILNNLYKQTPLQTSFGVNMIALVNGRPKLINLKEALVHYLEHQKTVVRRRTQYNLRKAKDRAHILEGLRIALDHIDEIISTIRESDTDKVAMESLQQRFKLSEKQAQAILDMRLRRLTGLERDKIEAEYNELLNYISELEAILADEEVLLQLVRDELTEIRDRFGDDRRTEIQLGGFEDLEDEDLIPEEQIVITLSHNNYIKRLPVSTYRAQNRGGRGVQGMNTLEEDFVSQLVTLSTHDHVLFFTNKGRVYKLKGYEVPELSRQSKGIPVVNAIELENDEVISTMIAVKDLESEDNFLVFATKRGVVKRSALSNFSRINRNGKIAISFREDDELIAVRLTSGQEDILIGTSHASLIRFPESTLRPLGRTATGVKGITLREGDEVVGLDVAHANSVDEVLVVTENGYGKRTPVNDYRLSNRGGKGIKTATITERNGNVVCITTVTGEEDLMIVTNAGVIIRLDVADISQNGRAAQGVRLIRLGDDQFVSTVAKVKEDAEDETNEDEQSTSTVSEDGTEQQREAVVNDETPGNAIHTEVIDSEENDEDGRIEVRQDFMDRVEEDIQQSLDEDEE
# [6] = In vitro antibacterial activity against gram-negative organism Pseudomonas aeruginosa 5007; type: functional; conditions: Pseudomonas aeruginosa; read-out: MIC
# [7] = target: T1, DNA gyrase (Escherichia coli); assay: In vitro antibacterial activity against gram-positive organism Streptococcus bovis A-5169; type: functional; conditions: Streptococcus equinus
# [8] = target: T1, DNA gyrase (Escherichia coli); assay: In vitro antibacterial activity against gram-positive organism Enterococcus faecium ATCC 8043; type: functional
# Streptococcus pyogenes = assay: In vitro antibacterial activity against gram-positive organism Streptococcus pyogenes EES61; type: functional; conditions: Streptococcus pyogenes; read-out: MIC
# [9] = target: T2, DNA gyrase (Staphylococcus aureus); assay: In vitro antibacterial activity against gram-positive organism Staphylococcus aureus NCTC-10649M; type: functional
# [10] = In vitro antibacterial activity against gram-negative organism Pseudomonas aeruginosa DPHD-2862; type: functional; conditions: Pseudomonas aeruginosa; read-out: MIC
# [11] = target: T2, DNA gyrase (Staphylococcus aureus); assay: In vitro antibacterial activity against gram-positive organism Staphylococcus aureus 1775; type: functional
# [12] = target: T1, DNA gyrase (Escherichia coli); conditions: Escherichia coli K-12
# Description: Concentration which causes 50% of the gyrase (Escherichia coli H560)-mediated maximal DNA cleavage.
SMILES,MIC [1],MIC [2] [µg/mL],MIC [3] [µg/mL],MIC [4] [µg/mL],MIC [5] [µg/mL],MIC [6] [µg/mL],MIC [7] [µg/mL],MIC [8] [µg/mL],MIC (Streptococcus pyogenes) [µg/mL],MIC [9] [µg/mL],MIC [10] [µg/mL],MIC [11] [µg/mL],CC50 [12] [µg/mL]
Cc1c(N(C)CCN)c(F)cn2c(=O)c(C(=O)O)cc(C3CC3)c12,25 µg/mL,1.56,0.78,0.2,1.56,6.2,12.5,3.1,12.5,1.56,> 100,> 100,
NC1CCN(c2nc3c(-c4c(F)c(F)c(F)c(F)c4F)cc(C(=O)O)c(=O)n3cc2F)C1 (stereo unspecified),> 100 pug ml-1,6.2,6.2,3.1,50,50,> 100,> 100,> 100,50,> 100,> 100,12.5
Cc1c(N2C[C@@H]3C[C@H]2CN3)c(F)cn2c(=O)c(C(=O)O)cc(C3CC3)c12,0.78 µg/mL,0.1,0.02,0.05,0.1,0.2,0.39,0.2,0.2,0.2,6.2,6.2,
CO[C@@H]1CN(c2c(F)cn3c(=O)c(C(=O)O)cc(C4CC4)c3c2C)C[C@H]1N,3.1 µg/mL,0.2,0.05,0.05,0.05,1.56,0.39,0.39,0.39,0.05,25,3.1,
Cc1ccc(S(=O)(=O)O)cc1.NC1CCN(c2nc3c(cc2F)c(=O)c(C(=O)O)cn3-c2ccc(F)cc2F)C1 (stereo unspecified) [TOSUFLOXACIN TOSYLATE],1.56 µg/mL,0.05,0.05,0.02,0.05,0.39,0.78,0.2,0.39,0.05,> 100,> 100,
Cc1c(N2CCC(n3ccnn3)C2)c(F)cn2c(=O)c(C(=O)O)cc(C3CC3)c12 (stereo unspecified),0.39 µg/mL,0.2,0.01,0.05,0.01,0.39,0.2,0.05,0.05,0.01,12.5,0.78,0.07
CCc1cc(C(=O)O)c(=O)n2ccc(N3CCC(N)C3)cc12.Cl (stereo unspecified),25 µg/mL,3.1,3.1,3.1,3.1,6.2,25,50,25,6.2,,,
CN1CCN(c2nc3c(-c4ccc(F)cc4F)cc(C(=O)O)c(=O)n3cc2F)CC1,25 µg/mL,0.78,0.39,0.2,0.2,6.2,12.5,6.2,3.1,0.2,> 100,> 100,
Cc1c(N2C[C@@H](N)C[C@H]2C)c(F)cn2c(=O)c(C(=O)O)cc(C3CC3)c12,3.1 µg/mL,0.1,0.1,0.01,0.01,0.78,0.1,0.05,0.2,0.02,3.1,0.78,
O=C(O)c1cc(-c2ccc(F)cc2F)c2nc(N3CCC(O)C3)c(F)cn2c1=O (stereo unspecified),6.2 µg/mL,0.39,0.1,0.05,0.05,0.78,6.2,0.78,0.78,0.05,> 100,100,0.5
C[C@H]1C[C@H](N)CN1c1nc2c(-c3ccc(F)cc3F)cc(C(=O)O)c(=O)n2cc1F,6.2 µg/mL,0.1,0.02,0.01,0.1,0.39,1.56,0.78,0.78,0.1,50,50,0.5
Cc1c(-n2ccnc2)c(F)cn2c(=O)c(C(=O)O)cc(C3CC3)c12,12.5 µg/mL,0.39,0.39,0.2,0.1,6.2,,0.39,1.56,0.2,> 100,6.2,0.3
